From US20260167829A1, “USES OF DIAZIRINES” (Nanyang Technological University, priority 2022, published 2026)
“Also recorded” adds a separate entry of the source.

Experiments:
[1] = UV/VIS spectroscopy, molar absorption; type: physicochemical
Method: The solution is then added to UV/VIS quartz tube with a path length of 1 cm. The background is normalized to chloroform. The samples are tested in the wavelength range of 200 to 800 nm at a medium scan rate of 2 nm, and a slit width of 0.5 nm. Data are collected in absorbance values (A) against wavelength (nm).

[2] = tested on: 3T3 fibroblasts or HeLa cell lines; assay: In vitro biocompatibility Alamar Blue assay; type: cell-based; conditions: 48 hours of incubation; all concentrations (0.01-1 mM)
Method: Cells seeded in wells (5 replicates for each group) with 100 μl DMEM media (10% FBS, 1% antibiotic). Incubated for 24 and 48 h, in a 96-well plate, 10000 cells/well, using 3T3 fibroblasts or HeLa cell lines. After 24 h, DMEM media replaced with 100 μl DMEM with dissolved test compounds (Test compounds dissolved in DMEM media to obtain final conc. of 1, 0.5, 0.1, 0.01 mM). After 24 hours of incubation, 10 μl resazurin solution (0.015%) dissolved in PBS was added to the wells followed by incubation for 3 hours. Readings taken post 24 hours and 48 hours of sample addition. (Ex-570 nm, Em-590 nm), Controls: Blank media without cells, Media with cells, Readings for (Blank media without cells) subtracted from all groups, Readings normalized against (media with cells group—100%)

[3] = Photorheometry of CaproGlu binary formulations (365 nm UVA, 10 J·cm^−2); type: physicochemical; conditions: neat component of Table 3; steady state viscosity, shear rate 10 sec^−1
Method: Rheometry was carried out on an Anton Paar MCR 102 rheometer (Anton Paar, Singapore) with a custom photocuring setup as described previously (Djordjevic, I. et al., Biomaterials 2020, 260, 120215). A PP10 parallel plate stainless steel probe was used, with a 0.2 mm measuring gap. Steady State Viscosity was measured first (shear rate 10 sec^−1), followed by a dynamic oscillatory strain measurement during photocuring (UV ON at 30 seconds, off at 2 minutes 10 seconds, 1% shear, frequency 10 Hz, amplitude 1%), then an Amplitude Sweep (shear 1-1000-%, angular frequency 10 rad-sec^−1). In reporting of G′ and G″, a smoothing function was applied. The UV lamp used was a Thor Labs 365 nm SOLIS High-Power LED connected to a DC2200 LED Driver set to constant current mode. […]
Covalent crosslinking was monitored via complex shear modulus (G*), which was measured on a custom photorheometer fitted with a narrow-band 365 nm UV diode and normal-force load cell. […] Dynamic viscosity, G′ (storage modulus), G″ (loss modulus), and normal force (caused by expansion/contraction of polymer matrix) were continually monitored and subsequently analysed for yield stress/strain with an amplitude sweep. Functional groups were qualitatively assessed before and after curing via ATR-FTIR spectroscopy to observe consumption. […]

[4] = Stability of PEGDA/PTHT mixtures with photoinitiator under indoor light; type: physicochemical; conditions: PEGDA+PTHT 2:1 binary mixture, 1 mol % initiator, no solvent
Method: Polyethylene glycol diacrylate (Mw˜575 Da), referred to as “PEGDA” further in text is used in all the experiments. PEGDA/PTHT samples are prepared by magnetic stirring of PEGDA and PTHT polymer blend (2:1 molar ratio) with diazirine photoinitiators (1 mol % DzOH or 1 mol % CG relative to the total number of mols of PEGDA in each sample). Samples with standard TPO photoinitiator (1 mol %) are used as controls. The mixing of compounds (PEGDA+PTHT) in binary mixture with photoinitiators (DzOH, CG and TPO) is completed without any solvent.

## O=C(O)c1ccc(C2(C(F)(F)F)N=N2)cc1 [DzCOOH, 4-[3-(Trifluoromethyl)-3H-diazirin-3-yl]benzoic acid]
[1]; previous UV-Vis studies
  absorbance above 400 nm: does not have an absorbance above 400 nm

## OCc1ccc(C2(C(F)(F)F)N=N2)cc1 [DzOH, 4-[3-(Trifluoromethyl)-3H-diazirin-3-yl]benzyl alcohol]
[2]
  Cell viability: not significantly different from control

## O=C(CCS)OCC(COC(=O)CCS)(COC(=O)CCS)COC(=O)CCS [PTHT, pentaerythritol tetrakis 3-mercaptopropionate]
[3]
  viscosity: [drawing 17] PTHT, Mw = 488.66 g · mol^-1, viscosity = 667 ± 49 mPa · s mPa·s

## Cc1cc(C)c(C(=O)P(=O)(c2ccccc2)c2ccccc2)c(C)c1 [TPO, Diphenyl(2,4,6-trimethylbenzoyl)phosphine oxide]
[1]; @ 381 nm
  molar absorption coefficient: 520 cm^−1M^−1
[4]
  stability under indoor lighting: activated under indoor light; also recorded: unstable and prematurely crosslinked under fluorescent lights and white LED emitters
